In patent publication US4870160A, “Polypeptides with laminin activity” (Regents of the University of Minnesota, priority 1987, dated 1989):
Peptide text beside a SMILES is read from it.

Columns and labels:
[1] = Heparin binding assay on nitrocellulose sheets (Example 1); conditions: peptide on nitrocellulose, 1 mg/ml to 1 μg/ml, 2 hours, FIG. 4
Procedure: The assay for heparin binding utilizes nitrocellulose sheets as subtrata to bind peptides or proteins to be tested for heparin binding activity. Peptides 9 and 11-18 were solubilized in 50 mM NH3 HCO3 to form solutions of 1 mg/ml. Each solution was serially diluted 1:1 in the same buffer producing concentrations from 1 mg/ml to 1 μg/ml. Nitrocellulose sheets which had been presoaked in 50 mM NH3 HCO3 were placed in a 96 well dot blot apparatus (Bethesda Research Laboratories, Bethesda, MD, and 100 μl of various concentrations of each peptide were aspirated through the wells. Each well was then washed three times with binding buffer (10 mM Tris-HCl, pH 8.0, 0.15 M NaCl), and the filters were removed and allowed to air dry overnight. The filters were then equilibriated for 5 minutes at room temperature in binding buffer which contained 10 mM CaCl2. ^3 H-heparin was then diluted to a concentration of 50,000 cpm/ml in binding buffer (with Ca^++), and nitrocellulose sheets were incubated in the presence of this mixture for 2 hours. The filters were then washed four times with binding buffer, and air dried. The individual spots of samples were cut out of the nitrocellulose, immersed in scintillation fluid and bound heparin was quantitated with a Beckman LS-3801 liquid scintillation counter. […]

[2] = system: murine melanoma cells, K-1735-M4; assay: Cell adhesion assay for M4 cell line (Example 6A); format: cell-based; conditions: FIG. 10
Procedure: (§1) Adhesion was measured using 96 well microtiter plates adsorbed with three different amounts (0.1; 1.0; and 10.0 μg/per well) of peptides 9, 11-18, BSA and laminin. Cultures of cells which were 60-80% confluent were metabolically labeled for 24 hours with the addition of 3 mCi/ml of ^3 H-amino acid mixture. On the day of the assay, the cells were harvested by trypsinization, the trypsin was inhibited by the addition of serum, and the cells were washed free of this mixture and resuspended in DMEM buffered with HEPES at pH 7.2. The adhesion medium also contained 2 mg/ml BSA. The cells were adjusted to a concentration of 3-4×10^4 /ml and 100 μls of this cell suspension was added to the wells. The assay mixture was then incubated at 37° C for 120 minutes. At the end of the incubation, the wells were washed with warm PBS containing 10 mM Ca^++, and the adherent population was solubilized with 0.5N NaOH containing 1% sodium dodecyl sulfate. The solubilized cells were then quantitated using a liquid scintillation counter. Each determination was done in triplicate.
Highly metastatic murine melanoma cells, K-1735-M4 were originally provided by Dr. I. J. Fidler of Anderson Hospital, University of Texas Health Sciences Center, Houston, Tex. When the cells were received, a large number of early passage cells were propagated and frozen in liquid nitrogen. […]

[3] = Heparin binding to peptides coated on 96-well plastic plates (Example 2); conditions: 1 mg/ml to 1 μg/ml, two hours at 37° C., FIG. 5
Procedure: In order to test the ability of the synthesized peptides (9 and 11-18) to bind to 96-well plastic plates (in which experiments with cultured cell lines can be performed), we did an experiment similar to that described above in Example 1. Stock solutions of peptides 9 and 11-18, laminin and BSA at a maximum concentration of 1 mg/ml were prepared and serially diluted in PBS+NaN3 producing final concentration from 1 mg/ml to 1 μg/ml. Fifty μl from each concentration was coated on the 96-well plates and left to dry overnight at 28° C. Then, wells were treated for two hours with […] of 2 mg/ml BSA in 6 mM phosphate, 100 mM NaCl, 68 μM CaCl2, pH 6.8 (wash buffer) in order to minimize non-specific binding. Next 50 μls of ^3 H-heparin (10 μg/ml) was added (50,000 cpm/well) for two hours at 37° C. The wells were then washed three times with wash buffer containing 0.05% Triton X-100 and finally they were incubated for thirty minutes at 60 C with 200 μl of 0.5 N NaOH and 1% SDS. The amount of ^3 H-heparin bound at each peptide concentration was quantitated as described above in Example 1.

[4] = system: Murine fibrosarcoma cells (uv-2237-MM); assay: Cell adhesion assay for MM fibrosarcoma cell line (Example 6B); format: cell-based; conditions: FIG. 11
Procedure: as §1
Murine fibrosarcoma cells (uv-2237-MM) were originally provided by Dr. I. J. Fidler of Anderson Hospital, University of Texas Health Sciences Center, Houston, Tex. Culturing, labeling and harvesting techniques were as described in part A. Cell adhesion assay was performed as described in Example 5.

[5] = molecular target: intact, native laminin (Mus musculus, UniProt P02469+P19137); assay: Inhibition of heparin binding to laminin by peptide fragments in solution (Example 3); conditions: peptides in solution 1 mg/ml to 1 μg/ml, laminin coated on plastic at 60 μg/ml, FIG. 6
Procedure: Peptides 9, 11-14 and 16 in solution (and not absorbed to plastic), were screened for the ability to inhibit the binding of heparin to intact, native laminin coated on plastic. This experimental approach avoids problems due to differential coating of peptides in heparin binding assays. Laminin at 60 μg/ml in PBS was coated on 96-well plates, using 50 μls per well and dried overnight at 28+ C. The wells were then treated for two hours with 2 mg/ml BSA in wash buffer (described above in Example 2). Peptides at various dilutions ranging from 1 mg/ml to 1 μg/ml in PBS and CHAPS (Cholamido-propyl-dimethyl-Axmmonio-PropaneSulfonate)(a detergent used to avoid non-specific sticking) were co-incubated with a standard amount of ^3 H-heparin (25,000 cpm per well 5 μg/ml final concentration) for two hours at 37° C. and the mixture was then transferred to the laminin coated plate (50 μl) and allowed to incubate for another two hours at 37° C. The wells were then washed and radioactivity was counted as described above.

[6] = system: Rat C6 glioma cell line; assay: Cell adhesion assay for C6 cell line (Example 6C); format: cell-based; conditions: FIG. 12
Procedure: as §1
Rat C6 glioma cell line was purchased from the American Type Culture Collection (identification number CCL 107). Culturing techniques were as described in part A. Labelling and harvesting techniques were as described in Example 5. Cell adhesion assay was performed as described in Example 5.

Compound | binding of ^3 H-heparin [1] | cell adhesion [2] | binding of ^3 H-heparin [3] | cell adhesion [4] | inhibition of binding of heparin to laminin [5] | cell adhesion [6]
CC[C@H](C)[C@H](NC(=O)[C@H](CCCCN)NC(=O)[C@H](CC(C)C)NC(=O)[C@H](C)NC(=O)[C@H](CCCCN)NC(=O)[C@H](C)NC(=O)[C@H](CCCCN)NC(=O)[C@H](CCC(=O)O)NC(=O)[C@H](CC(C)C)NC(=O)[C@H](Cc1ccccc1)NC(=O)[C@H](CCCCN)NC(=O)[C@H](Cc1c[nH]cn1)NC(=O)[C@@H](NC(=O)[C@H](CCCNC(=N)N)NC(=O)[C@H](CC(N)=O)NC(=O)[C@@H](NC(=O)[C@H](CC(C)C)NC(=O)[C@@H](N)CCC(=O)O)[C@@H](C)O)[C@@H](C)O)C(=O)O [Peptide F13, ELTNRTHKFLEKAKALKI] (H-ELTNRTHKFLEKAKALKI-OH) | strongly bound ^3 H-heparin | potent promoters of cell adhesion | binds heparin but less extensively | potent promoters of cell adhesion | interact most strongly with heparin | potent promoters of cell adhesion
CSCC[C@H](NC(=O)CNC(=O)[C@H](CCCCN)NC(=O)[C@H](CCC(=O)O)NC(=O)[C@H](Cc1ccccc1)NC(=O)[C@H](CS)NC(=O)[C@@H](NC(=O)[C@@H]1CCCN1C(=O)[C@H](CCCNC(=N)N)NC(=O)[C@@H]1CCCN1C(=O)[C@H](CC(C)C)NC(=O)[C@@H](NC(=O)[C@@H](NC(=O)[C@H](Cc1ccc(O)cc1)NC(=O)[C@@H](N)CCCNC(=N)N)C(C)C)C(C)C)C(C)C)C(=O)N[C@@H](CC(N)=O)C(=O)N[C@@H](Cc1ccc(O)cc1)C(=O)N[C@H](C(=O)N[C@H](C(=O)N[C@@H](CCCNC(=N)N)C(=O)O)C(C)C)[C@@H](C)O [Peptide F9] (H-RYVVLPRPVCFEKGMNYTVR-OH) | strongly bound ^3 H-heparin | potent promoters of cell adhesion | bind heparin very well | potent promoters of cell adhesion | interact most strongly with heparin | potent promoters of cell adhesion
